# Results taken from PubChem BioAssay AID1963832 (Molecular Pharmacology Branch, DTP, NCI, 2024).
# System: 885724-159-R-J1-PDC complex spheroid viability
# Test: Anticancer human tumor 885724-159-R-J1-PDC patient-derived pancreatic adenocarcinoma cell line growth inhibition [POLQ]
# Conditions: for IC50: curve of first compound; for viability, T/C: stronger effect = lower value
# Summary of the method: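 Three-cell-type spheroids modelling solid tumor plus stroma served as the readout system; POL inhibitors were tested individually and in combination, concentration ranges set by clinical Cmax where known.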
# [1] = second compound 0.0316 µM, first compound 0.0316 µM
# [2] = second compound 0.0316 µM, first compound 0.1 µM
# [3] = second compound 0.0316 µM, first compound 0.316 µM
# [4] = second compound 0.0316 µM, first compound 1 µM
# [5] = second compound 0.0316 µM, first compound 3.16 µM
# [6] = second compound 0.0316 µM, first compound 10 µM
# [7] = second compound 0.1 µM, first compound 0.0316 µM
# [8] = second compound 0.1 µM, first compound 0.1 µM
# [9] = second compound 0.1 µM, first compound 0.316 µM
# [10] = second compound 0.1 µM, first compound 1 µM
# [11] = second compound 0.1 µM, first compound 3.16 µM
# [12] = second compound 0.1 µM, first compound 10 µM
# [13] = second compound 0.316 µM, first compound 0.0316 µM
# [14] = second compound 0.316 µM, first compound 0.1 µM
# [15] = second compound 0.316 µM, first compound 0.316 µM
# [16] = second compound 0.316 µM, first compound 1 µM
# [17] = second compound 0.316 µM, first compound 3.16 µM
# [18] = second compound 0.316 µM, first compound 10 µM
# [19] = second compound 1 µM, first compound 0.0316 µM
# [20] = second compound 1 µM, first compound 0.1 µM
# [21] = second compound 1 µM, first compound 0.316 µM
# [22] = second compound 1 µM, first compound 1 µM
# [23] = second compound 1 µM, first compound 3.16 µM
# [24] = second compound 1 µM, first compound 10 µM
# [25] = second compound 3.16 µM, first compound 0.0316 µM
# [26] = second compound 3.16 µM, first compound 0.1 µM
# [27] = second compound 3.16 µM, first compound 0.316 µM
# [28] = second compound 3.16 µM, first compound 1 µM
# [29] = second compound 3.16 µM, first compound 3.16 µM
# [30] = second compound 3.16 µM, first compound 10 µM
# [31] = second compound 10 µM, first compound 0.0316 µM
# [32] = second compound 10 µM, first compound 0.1 µM
# [33] = second compound 10 µM, first compound 0.316 µM
# [34] = second compound 10 µM, first compound 1 µM
# [35] = second compound 10 µM, first compound 3.16 µM
# [36] = second compound 10 µM, first compound 10 µM
# 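Also: spheroids exposed to compounds for 7 days.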
smiles,measurement,setting,value
CC1COCCN1c1cc(-c2ccnn2C)c2ccnc(-c3ccn[nH]3)c2n1 (stereo not drawn) + COC1C(OC(N)=O)C(O)C(Oc2ccc3c(O)c(NC(=O)c4ccc(O)c(CC=C(C)C)c4)c(=O)oc3c2C)OC1(C)C,IC50,second compound 0.0316 µM,0.229 µM
same,IC50,second compound 0.1 µM,0.211 µM
same,IC50,second compound 0.316 µM,0.169 µM
same,IC50,second compound 1 µM,0.188 µM
same,IC50,second compound 3.16 µM,0.189 µM
same,IC50,second compound 10 µM,0.247 µM
same,"viability, T/C",[1],78.3%
same,"viability, T/C",[2],63.8%
same,"viability, T/C",[3],44.3%
same,"viability, T/C",[4],42.1%
same,"viability, T/C",[5],39%
same,"viability, T/C",[6],39.3%
same,"viability, T/C",[7],76.5%
same,"viability, T/C",[8],64.3%
same,"viability, T/C",[9],41.6%
same,"viability, T/C",[10],41.5%
same,"viability, T/C",[11],35.2%
same,"viability, T/C",[12],35.6%
same,"viability, T/C",[13],81.1%
same,"viability, T/C",[14],53.8%
same,"viability, T/C",[15],44.3%
same,"viability, T/C",[16],43.5%
same,"viability, T/C",[17],43.3%
same,"viability, T/C",[18],36.2%
same,"viability, T/C",[19],84.1%
same,"viability, T/C",[20],55.8%
same,"viability, T/C",[21],43.6%
same,"viability, T/C",[22],43.7%
same,"viability, T/C",[23],41%
same,"viability, T/C",[24],33.5%
same,"viability, T/C",[25],76.4%
same,"viability, T/C",[26],55.9%
same,"viability, T/C",[27],45.5%
same,"viability, T/C",[28],37.8%
same,"viability, T/C",[29],37.8%
same,"viability, T/C",[30],33.8%
same,"viability, T/C",[31],77.1%
same,"viability, T/C",[32],57.6%
same,"viability, T/C",[33],48.2%
same,"viability, T/C",[34],41.1%
same,"viability, T/C",[35],38.9%
same,"viability, T/C",[36],34.4%
C#Cc1c(F)ccc2cc(O)cc(-c3ncc4c(N5CC6CCC(C5)N6)nc(OCC56CCCN5CC(F)C6)nc4c3F)c12 (stereo not drawn) + COC1C(OC(N)=O)C(O)C(Oc2ccc3c(O)c(NC(=O)c4ccc(O)c(CC=C(C)C)c4)c(=O)oc3c2C)OC1(C)C,IC50,second compound 0.0316 µM,2.75 µM
same,IC50,second compound 0.1 µM,2.49 µM
same,IC50,second compound 0.316 µM,2.38 µM
same,IC50,second compound 1 µM,2.67 µM
same,IC50,second compound 3.16 µM,2.58 µM
same,IC50,second compound 10 µM,2.97 µM
same,"viability, T/C",[1],104%
same,"viability, T/C",[2],101%
same,"viability, T/C",[3],88.5%
same,"viability, T/C",[4],76.8%
same,"viability, T/C",[5],45.2%
same,"viability, T/C",[6],21.7%
same,"viability, T/C",[7],104%
same,"viability, T/C",[8],94.3%
same,"viability, T/C",[9],93%
same,"viability, T/C",[10],72.1%
same,"viability, T/C",[11],44%
same,"viability, T/C",[12],21.7%
same,"viability, T/C",[13],95.7%
same,"viability, T/C",[14],107%
same,"viability, T/C",[15],88.7%
same,"viability, T/C",[16],76.6%
same,"viability, T/C",[17],40.9%
same,"viability, T/C",[18],22.6%
same,"viability, T/C",[19],97.9%
same,"viability, T/C",[20],100%
same,"viability, T/C",[21],90%
same,"viability, T/C",[22],76.5%
same,"viability, T/C",[23],45.2%
same,"viability, T/C",[24],20.8%
same,"viability, T/C",[25],94.9%
same,"viability, T/C",[26],97.2%
same,"viability, T/C",[27],90.3%
same,"viability, T/C",[28],67.2%
same,"viability, T/C",[29],47.8%
same,"viability, T/C",[30],22.3%
same,"viability, T/C",[31],99.4%
same,"viability, T/C",[32],92.6%
same,"viability, T/C",[33],95.2%
same,"viability, T/C",[34],73.9%
same,"viability, T/C",[35],49.4%
same,"viability, T/C",[36],21.9%
COc1ccc([C@@H](O)c2cc(-c3ncnc4cc(N5CCOCC5)ccc34)c(F)cc2Cl)nn1 + COC1C(OC(N)=O)C(O)C(Oc2ccc3c(O)c(NC(=O)c4ccc(O)c(CC=C(C)C)c4)c(=O)oc3c2C)OC1(C)C,IC50,second compound 0.0316 µM,3.45 µM
same,IC50,second compound 0.1 µM,4.09 µM
same,IC50,second compound 0.316 µM,4.05 µM
same,IC50,second compound 1 µM,4.77 µM
same,IC50,second compound 3.16 µM,3.15 µM
same,IC50,second compound 10 µM,3.75 µM
same,"viability, T/C",[1],95.4%
same,"viability, T/C",[2],85.4%
same,"viability, T/C",[3],76.3%
same,"viability, T/C",[4],65.5%
same,"viability, T/C",[5],53.4%
same,"viability, T/C",[6],33.4%
same,"viability, T/C",[7],104%
same,"viability, T/C",[8],104%
same,"viability, T/C",[9],81.9%
same,"viability, T/C",[10],71.2%
same,"viability, T/C",[11],56.7%
same,"viability, T/C",[12],33.8%
same,"viability, T/C",[13],100%
same,"viability, T/C",[14],93.3%
same,"viability, T/C",[15],86.6%
same,"viability, T/C",[16],73.7%
same,"viability, T/C",[17],54.2%
same,"viability, T/C",[18],32.8%
same,"viability, T/C",[19],94.2%
same,"viability, T/C",[20],81.4%
same,"viability, T/C",[21],90%
same,"viability, T/C",[22],66.8%
same,"viability, T/C",[23],61.9%
same,"viability, T/C",[24],34.3%
same,"viability, T/C",[25],89.9%
same,"viability, T/C",[26],81.3%
same,"viability, T/C",[27],97.2%
same,"viability, T/C",[28],68.4%
same,"viability, T/C",[29],52.5%
same,"viability, T/C",[30],31.8%
same,"viability, T/C",[31],108%
same,"viability, T/C",[32],86.9%
same,"viability, T/C",[33],87.5%
same,"viability, T/C",[34],69.1%
same,"viability, T/C",[35],55.5%
same,"viability, T/C",[36],31.5%
COc1cc(C2c3cc4c(cc3C(OC3OC5COC(C)OC5C(O)C3O)C3COC(=O)C23)OCO4)cc(OC)c1O (stereo not drawn) + Cc1cccc(N(C)C(=O)C2C(O)CCN2c2nc(C)cc(C(F)(F)F)c2C#N)c1,IC50,second compound 0.0316 µM,8.12 µM
same,IC50,second compound 0.1 µM,9.11 µM
same,IC50,second compound 0.316 µM,9.09 µM
same,IC50,second compound 1 µM,6.86 µM
same,IC50,second compound 3.16 µM,6.86 µM
same,IC50,second compound 10 µM,6.05 µM
same,"viability, T/C",[1],101%
same,"viability, T/C",[2],90.2%
same,"viability, T/C",[3],80.7%
same,"viability, T/C",[4],75%
same,"viability, T/C",[5],57.7%
same,"viability, T/C",[6],48.1%
same,"viability, T/C",[7],94.7%
same,"viability, T/C",[8],86.1%
same,"viability, T/C",[9],79.5%
same,"viability, T/C",[10],73.4%
same,"viability, T/C",[11],63.2%
same,"viability, T/C",[12],47.5%
same,"viability, T/C",[13],95.4%
same,"viability, T/C",[14],99.8%
same,"viability, T/C",[15],74.6%
same,"viability, T/C",[16],71%
same,"viability, T/C",[17],58.2%
same,"viability, T/C",[18],48.4%
same,"viability, T/C",[19],100%
same,"viability, T/C",[20],79.3%
same,"viability, T/C",[21],74%
same,"viability, T/C",[22],71%
same,"viability, T/C",[23],55.7%
same,"viability, T/C",[24],45.4%
same,"viability, T/C",[25],98.1%
same,"viability, T/C",[26],96.9%
same,"viability, T/C",[27],76.2%
same,"viability, T/C",[28],67.3%
same,"viability, T/C",[29],58.6%
same,"viability, T/C",[30],45.9%
same,"viability, T/C",[31],95.9%
same,"viability, T/C",[32],80%
same,"viability, T/C",[33],74.9%
same,"viability, T/C",[34],62.6%
same,"viability, T/C",[35],58.2%
same,"viability, T/C",[36],44.2%
